From BindingDB's records for doi:10.1111/cbdd.12604 (Nanjing University, 2015)

Target: 72 kDa type IV collagenase (Homo sapiens, UniProt P08253)
Assay: MMP-2 Inhibition Assay
Experimental: This esterase assay used 4-nitrophenylacetate as a substrate. Initially, the rhMMP-2 was diluted to 100 µg/mL with 1 mM APMA in assay buffer. Later, the reaction was incubated at 37℃ for 1 hour. Then the rhMMP-2 was diluted to 0.2 µg/mL in assay buffer, whereas the substrate was diluted to 20 µM by assay buffer. To each well of 96-well plate, 50 µL diluted rhMMP-2 was loaded along with 100 µL diverse concentration of test compounds. The reaction was started by adding 50 μL of 20 μM substrate to each well. After progress in kinetic mode for 5 minutes, the results were read at excitation and emission wavelengths of 320 nm and 405 nm, respectively.

72 kDa type IV collagenase, sequence (P08253 whole entry): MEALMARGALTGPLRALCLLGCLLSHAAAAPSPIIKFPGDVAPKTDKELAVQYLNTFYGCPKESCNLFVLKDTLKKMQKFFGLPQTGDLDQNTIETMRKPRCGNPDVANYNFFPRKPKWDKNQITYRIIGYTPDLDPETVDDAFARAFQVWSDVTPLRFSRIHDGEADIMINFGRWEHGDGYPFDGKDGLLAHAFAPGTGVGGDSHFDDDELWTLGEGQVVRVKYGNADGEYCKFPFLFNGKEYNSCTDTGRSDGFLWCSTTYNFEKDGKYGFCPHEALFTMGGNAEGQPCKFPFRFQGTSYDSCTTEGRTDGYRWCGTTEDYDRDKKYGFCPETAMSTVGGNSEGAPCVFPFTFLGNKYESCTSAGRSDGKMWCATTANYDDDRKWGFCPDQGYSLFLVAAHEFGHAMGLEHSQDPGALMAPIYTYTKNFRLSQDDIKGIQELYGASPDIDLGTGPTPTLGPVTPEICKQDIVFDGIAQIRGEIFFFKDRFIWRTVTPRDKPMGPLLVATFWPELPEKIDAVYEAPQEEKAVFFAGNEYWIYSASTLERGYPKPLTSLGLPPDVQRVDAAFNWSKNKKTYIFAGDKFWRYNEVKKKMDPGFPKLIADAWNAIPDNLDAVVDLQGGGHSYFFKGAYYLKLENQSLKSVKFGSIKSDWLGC

NS(=O)(=O)c1ccc(N2N=C(c3ccccc3Cl)CC2c2ccccc2O)cc1 (stereo unspecified) [4-(3-(2-Chlorobenzene)-5-(2-hydroxyphenyl)-4,5-dihydropyrazole) benzene sulfonamide (4b)]
IC50: 11.5 µM

NS(=O)(=O)c1ccc(N2N=C(c3ccc(Cl)c(Cl)c3)CC2c2ccccc2O)cc1 (stereo unspecified) [4-(3-(3,4-Dichlorobenzenebase)-5-(2-hydroxyphenyl)-4,5-dihydropyrazole) benzene sulfonamide (4g)]
IC50: 12.9 µM

Cc1ccc(C2=NN(c3ccc(S(N)(=O)=O)cc3)C(c3ccccc3O)C2)cc1C (stereo unspecified) [4-(3-(3,4-Dimethylphenyl)-5-(2-hydroxyphenyl)-4,5-dihydropyrazole) benzene sulfonamide (4f)]
IC50: 4.65 µM

NS(=O)(=O)c1ccc(N2N=C(c3ccc(Br)cc3)CC2c2cc(Cl)ccc2O)cc1 (stereo unspecified) [4-(3-(4-Brominephenyl)-5-(5-chloro-2-hydroxyphenyl)-4,5-dihydropyrazole) benzene sulfonamide (4m)]
IC50: 18.9 µM

COc1cccc(C2=NN(c3ccc(S(N)(=O)=O)cc3)C(c3ccccc3O)C2)c1 (stereo unspecified) [4-(5-(2-Hydroxyphenyl)-3-(3-oxygenmethylphenyl)-4,5-dihydropyrazole) benzene sulfonamide (4e)]
IC50: 1.81 µM

NS(=O)(=O)c1ccc(N2N=C(c3ccc(F)cc3)CC2c2ccccc2O)cc1 (stereo unspecified) [4-(5-(2-Hydroxyphenyl)-3-(4-fluorinatedphenyl)-4,5-dihydropyrazole) benzene sulfonamide (4x)]
IC50: 24.7 µM

COc1ccc(C2=NN(c3ccc(S(N)(=O)=O)cc3)C(c3ccccc3O)C2)cc1 (stereo unspecified) [4-(5-(2-Hydroxyphenyl)-3-(4-methoxyphenyl)-4,5-dihydropyrazole) benzene sulfonamide (4y)]
IC50: 1.83 µM

NS(=O)(=O)c1ccc(N2N=C(c3ccccc3Cl)CC2c2cc(Br)ccc2O)cc1 (stereo unspecified) [4-(5-(5-Bromine-2-hydroxyphenyl)-3-(2-chlorobenzene)-4,5-dihydropyrazole) benzene sulfonamide (4t)]
IC50: 15 µM

NS(=O)(=O)c1ccc(N2N=C(c3ccc(Cl)c(Cl)c3)CC2c2cc(Br)ccc2O)cc1 (stereo unspecified) [4-(5-(5-Bromine-2-hydroxyphenyl)-3-(3,4-dichlorobenzene)-4,5-dihydropyrazole) benzene sulfonamide (4w)]
IC50: 16.2 µM

COc1cccc(C2=NN(c3ccc(S(N)(=O)=O)cc3)C(c3cc(Br)ccc3O)C2)c1 (stereo unspecified) [4-(5-(5-Bromine-2-hydroxyphenyl)-3-(3-oxygenmethylphenyl)-4,5-dihydropyrazole) benzene sulfonamide (4r)]
IC50: 3.23 µM

NS(=O)(=O)c1ccc(N2N=C(c3ccc(Br)cc3)CC2c2cc(Br)ccc2O)cc1 (stereo unspecified) [4-(5-(5-Bromine-2-hydroxyphenyl)-3-(4-brominephenyl)-4,5-dihydropyrazole) benzene sulfonamide (4v)]
IC50: 8.73 µM

NS(=O)(=O)c1ccc(N2N=C(c3ccc(Cl)cc3)CC2c2cc(Br)ccc2O)cc1 (stereo unspecified) [4-(5-(5-Bromine-2-hydroxyphenyl)-3-(4-chlorobenzene)-4,5-dihydropyrazole) benzene sulfonamide (4u)]
IC50: 15.8 µM

NS(=O)(=O)c1ccc(N2N=C(c3ccccc3)CC2c2cc(Br)ccc2O)cc1 (stereo unspecified) [4-(5-(5-Bromine-2-hydroxyphenyl)-3-phenyl-4,5-dihydropyrazole) benzene sulfonamide (4q)]
IC50: 12.8 µM

NS(=O)(=O)c1ccc(N2N=C(c3ccccc3Cl)CC2c2cc(Cl)ccc2O)cc1 (stereo unspecified) [4-(5-(5-Chloro-2-hydroxyphenyl) -3 - (2 - chlorobenzene) - 4, 5 - dihydropyrazole) benzene sulfonamide (4i)]
IC50: 16.4 µM

NS(=O)(=O)c1ccc(N2N=C(c3ccc(Cl)c(Cl)c3)CC2c2ccc(Cl)cc2O)cc1 (stereo unspecified) [4-(5-(5-Chloro-2-hydroxyphenyl)-3-(3,4-dichlorobenzenebase)-4,5-dihydropyrazole) benzene sulfonamide (4n)]
IC50: 16.5 µM

COc1cccc(C2=NN(c3ccc(S(N)(=O)=O)cc3)C(c3cc(Cl)ccc3O)C2)c1 (stereo unspecified) [4-(5-(5-Chloro-2-hydroxyphenyl)-3-(3-oxygenmethylphenyl)-4,5-dihydropyrazole) benzene sulfonamide (4p)]
IC50: 2.13 µM

NS(=O)(=O)c1ccc(N2N=C(c3ccc(Cl)cc3)CC2c2cc(Cl)ccc2O)cc1 (stereo unspecified) [4-(5-(5-Chloro-2-hydroxyphenyl)-3-(4-chlorobenzene)-4,5-dihydropyrazole) benzene sulfonamide (4k)]
IC50: 11.3 µM

CCOc1ccc(C2=NN(c3ccc(S(N)(=O)=O)cc3)C(c3ccc(Cl)cc3O)C2)cc1 (stereo unspecified) [4-(5-(5-Chloro-2-hydroxyphenyl)-3-(4-phenylethyloxygen)-4,5-dihydropyrazole) benzene sulfonamide (4o)]
IC50: 3.84 µM

NS(=O)(=O)c1ccc(N2N=C(c3ccccc3)CC2c2ccc(Cl)cc2O)cc1 (stereo unspecified) [4-(5-(5-Chloro-2-hydroxyphenyl)-3-phenyl)-4,5-dihydro benzene sulfonamide pyrazole) (4j)]
IC50: 13.5 µM

C[C@@]1(O)c2cccc(O)c2C(O)=C2C(=O)[C@]3(O)C(O)=C(C(N)=O)C(=O)C[C@@H]3C[C@@H]21 [(4aS,5aS,6S,12aR)-1,6,10,11,12a-pentahydroxy-6-methyl-3,12-dioxo-4,4a,5,5a-tetrahydrotetracene-2-carboxamide]
IC50: 1.13 µM

COc1ccc(C2=NN(c3ccc(S(N)(=O)=O)cc3)C(c3ccc(Cl)cc3O)C2)cc1 (stereo unspecified) [-(5-(5-Chloro-2-hydroxyphenyl)-3-(4-methylphenyloxygen)-4,5-dihydropyrazole) benzene sulfonamide (4l)]
IC50: 4.62 µM
